Measurements reported in patent publication US5608143A, “External regulation of gene expression” (E. I. Du Pont de Nemours and Company, priority 1994, dated 1997).

How the values were obtained:
2-2 gene (In 2-2 mRNA) = test: RNA slot blot / Northern analysis of 2-2 mRNA in roots of chemically treated corn; assay type: in vivo, corn (Missouri 17); design: In2-2 induction level: key to the marks not given beside the values
Method: Details of the techniques used to perform the procedures used in Example 2 are presented in Example 1. The cDNA library made using poly(A)^+ RNA from the roots of N-(aminocarbonyl)-2-chlorobenzenesulfonamide-treated Missouri 17 corn plants (described in Example 1) was analyzed for additional cDNA clones representing mRNAs induced by substituted benzenesulfonamides. […] This colony was designated In 2-2.
A small scale plasmid preparation was performed on the plasmid contained in colony In 2-2. This plasmid was designated pIn 2-2. An aliquot of pIn 2-2 was nick translated as described earlier. A slot blot containing total RNA from N-(aminocarbonyl)-2-chlorobenzenesulfonamide-treated and untreated roots was prepared and probed with nick-translated pIn 2-2 as described for pIn 2-1 in Example 1.
The pIn 2-2 small scale plasmid preparation was digested to completion with Pst I and analyzed by agarose gel electrophoresis. The cDNA insert of the plasmid was excised by Pst I as a single 1200 bp fragment. Nick-translatedpIn 2-2 was used to probe a Northern blot of RNA from both untreated and N-(aminocarbonyl)-2-chlorobenzenesulfonamide-treated roots.
The ability at various substituted benzenesulfonamides and related compound to induce the expression of the 2-1, 2-2, and 5-2 genes of Missouri 17 corn was evaluated. Corn seeds were germinated and grown hydroponically in 2 liter beakers as described in Example 1. On the tenth day, plants were transferred into fresh 0.5× Hoagland's solution containing the chemical to be tested. Root tissue was harvested from the plants after six hours of chemical treatment, quick-frozen by immersion in liquid N2, and stored at -80° C. until analyzed.
Details of the RNA isolation and slot blot analysis procedures are presented in Example 1. Total RNA was prepared from the root tissue of plants that had been treated with various chemicals using the previously described guanidine thiocyanate procedure. Replicate blots, each consisting of 2 μg of total RNA from tissues treated with each of the chemicals shown in tables 8 and 9, were prepared on nitrocellulose membranes using a Minifold II® Slot-blotter (Schleicher & Schuell) following the manufacturer's recommeneded procedure. Replicate blots were prehybridized and hybridized with cDNA probes made by nick translation of the purified cDNA inserts from plasmid pIn 2-1, pIn 2-2-3, and pIn 5-2. Slot blots were washed as described in Example 1 and exposed to Kodak X-OMAT XAR-5 film for 24 hours at -80° C. using a single Du Pont Lightning Plus intensifying screen. Film was developed using a Kodak X-OMAT film processor. The abililty of a chemical to induce the mRNA encoded by the three inducible genes was evaluated in one of two ways. Qualitative evaluation was performed by direct visual comparison of the autoradiographic signal intensities on the films for the hybridization of each probe to the different RNA samples. Quantitative evaluation was performed by cutting each slot containing hybridized RNA from the blot, immersing it in 2 ml of Du Pont ECONOFLUOR® scintillation cocktail and counting the radioactivity in each slot in a scintillation counter. The net amount of radioactivity hybridizing to N-(aminocarbonyl)-2-chlorobenzenesulfonamide-treated RNA after subtraction of radioactivity hybridizing to untreated RNA is presented in Table 15.

[1] = test system: petunia P6.1 gene (P6 RNA); test: Northern / RNAse protection analysis of P6 RNA in roots of chemically treated petunia; assay type: in vivo, Petunia (Mitchell)
Description: Petunia (Mitchell) seeds were germinated in soil and allowed to grow for one month under standard greenhouse conditions. Plants were transferred to a hydroponic growth apparatus in a greenhouse using foam plugs to support the plants. These plugs were then placed in holes in a wooden bDard and placed over a stainless steel sink containing 0.5× Hoagland's solution. The solution was aerated using standard aquarium pumps, and was changed weekly. After one month of hydroponic growth, plants were transferred to stainless steel trays containing either fresh 0.5 × Hoagland's or 0.5× Hoagland's containing 0.2 g per liter of N-(aminocarbonyl)-2-chlorobenzenesulfonamide. Root tissue was harvested after six hours of treatment.
Ten μg (2 mg/ml) of total RNA from control and N-(aminocarbonyl)-2-chlorobenzenesulfonamide-treated roots was denatured by adding 10 μl of deionized formamide, 3.5 μl formaldehyde, 4 μl 5× MEN buffer (40 mM MOPS pH 7.0, 10 mM sodium acetate, 1 mM EDTA) and incubating at 65° C. for 15 minutes. […] RNA was stained in the presence of 10 mM sodium phosphate pH 6.8 and 1 μg/ml acridine orange for 30 minutes. The gel was then desrained in 10 mM sodium phosphate for 30 minutes, and the RNA was visualized on a UV transilluminator, photographed, and blotted to nitrocellulose (Millipore HAWP). To do this, Whatman 3MM paper was placed below the gel on a glass plate so that the ends of the paper extended into 20× SSC. A sheet of nitroccllulose which had been prewet with 2× SSC was placed on top of the gel followed by a layer of Whatman 3MM, then a stack of paper towels 10 cm high. A glass plate and weight were then placed on top of the stack. Following an overnight transfer, the filter was rinsed briefly in 2× SSC, air dried, and baked in vacuo for 2 hours at 80° C.
The filters were prehybridized for 5 hours in plastic dishes at 42° C. using the hybridization buffer described earlier. Plasmid p6.1 was nick-translated by combining 1 μg of DNA with 5 μl 10× buffer (0.5M Tris-HCl pH 8.0, 0.1M MgSO4, 10 mM DTT and 0.5 mg/ml BSA), 5 μl 0.3 uM d(AGT)TP, 5 μl ^32 P-dCTP (Amersham, 10 mCi/ml, 400 Ci/mmole), 1 μl DNA polymerase 1 (5 U/μl, Boehringer-Mannheim), and 1 μl of 0.1 μg/ml DNAse 1 in a total volume of 50 μl. […] The reaction was then incubated for 5 minutes at 70° C., and labelled DNA was separated from unincorporated nucleotides by Sephadex® G-50 column chromatography. The prehybridization solution was removed from the bag and replaced with hybridization solution containing nick-translated plasmid P6.1 DNA at a concentration of 1×10^6 cpm/ml. […] Filters were washed twice with 2× SSC, 0.1% SDS at 42° C. followed by two washes in 0.1× SSC, 0.1%SDS at 60° C.
RNA probes complementary to the coding strands in both P644 and P645 were synthesized in the following reaction: 50 uCi ^32 P-UTP, 2 μl 5× transcription buffer (200 mM Tris-HCl pH 7.5, 30 mM MgCl2, 10 mM spermidine), 0.5 μl 0.2M DTT, and 0.5 μl of either T3 polymerase (plasmid P645) or T7 polymerase (plasmid P644). Incubation was carried out at 40° C. for 1 hour. The DNA template was hydrolyzed for 15 minutes at 37° C. by addition of 30 μl H2 O, 1 μl RNAsin, 2,5 μl vanadyl ribonucleoside complex, 6 μl 5× transcription buffer and 1 μl DNAse 1 (1 mg/ml) to the transcription reaction. The reaction was extracted with an equal volume of phenol:chloroform (1:1 v/v). The RNA was precipitated once with ethanol in the presence of ammonium acetate and once with ethanol in the presence of sodium acetate. The pellets were dissolved in 25 μl of TE. Ten μg of RNA from untreated and N-(aminocarbonyl)-2-chlorobenzenesulfonamide-treated plants were mixed with 1×10^6 cpm of each of the two probes in 30 ul of hybridization buffer (40 mM PIPES pH 6.7, 0.4M NaCl, 1 mM EDTA). […] Single stranded RNA was selectively digested by adding 300 μl RNAse A and RNAse T1 to 40 μg/ml and 2 μg/ml respectively in 10 mM Tris-HCl pH 7.5, 5 mM EDTA, and 300 mM NaCl.

[2] = test system: 2-2 promoter/HRA recombinant gene; test: RNAse protection analysis of HRA (ALS) mRNA in leaves of tobacco transformed with 2-2 promoter/HRA gene; assay type: in vivo; conditions: excised leaves, 200 mg/l in 0.5× Hoagland's, 16-24 hours
Method: The expression of stable cytoplasmic mRNA transcribed from the wild type and transforming ALS genes in transformed plants were measured by RNAse protection analysis. In this manner, expression of the pDuPS22 construction was distinguished from the wild type ALS genes by virtue of the fact that the pDUPS22 transcript has a 2-2 untranslated leader that is divergent from the untranslated leader of the native ALS genes. […]
RNAse protection assays were carried out using the protocol of Zinn et al. (Zinn et al. Cell (1983) 34, 865-879). […] The sizes of the labelled RNA fragments remaining after digestion with RNAse T1 and RNAse A were determined by electrophoresis using 6% denaturing polyacrylamide gels.

[3] = hydroponic treatment, corn roots
[4] = hydroponic 200 mg/l, sampled at 2, 4, 6 and 22 hours, roots

NC(=O)NS(=O)(=O)c1ccccc1Cl
In2-2 induction level (2-2 gene (In 2-2 mRNA); hydroponic application, 100 ppm): +++++ | hybridization of pIn 2-2 to root RNA (Northern blot) (2-2 gene (In 2-2 mRNA); [3]): present only in RNA from the roots | hybridization of pIn 2-2 to root RNA (slot blot) (2-2 gene (In 2-2 mRNA); [3]): hybridizes strongly | hybridization of P6.1 probe to root RNA (Northern blot) ([1]; hydroponic 0.2 g per liter, six hours, petunia roots): hybridized to an 800 bp message | time at which P6 RNA reached maximum levels [1, 4]: ≤ 6 h | time at which P6 RNA was detectable [1, 4]: ≤ 2 h | RNAse protection of P6.1 probes by root RNA ([1]; petunia roots, treated vs untreated plants): Protected fragments of 110 bp were observed in induced but not control RNA | induction of HRA mRNA (RNAse protection) [2]: induction of high levels of stable cytoplasmic HRA mRNA
